Measurements reported in patent publication US12295936B2, “Immunomodulating urea azalides” (Zoetis Services LLC, priority 2020, dated 2025).
Like-named read-outs stand apart in the source and are kept apart here.

How the values were obtained:
IL-6 = test: LPS-stimulated whole bovine blood assay, MSD cytokine detection; type: cell-based; details: read-out: IL-6 (IC50 μM)
Description: In order to correlate RNA sequencing data to cytokine changes the whole blood assay was utilized. […] The enhancement result represents an overall stimulation of cytokine levels due to cellular stress or potential toxicity with increasing concentrations of the compound, representing a typical bell shape response curve for immunomodulatory activity.

P. multocida 46572 = test: In vivo mouse lung infection challenge model (murine efficacy); parameters: species or system CD-1 female mice; details: 20 mg/kg subcutaneous, P. multocida challenge; harmonized against the comparative vehicle survival rate
Protocol: The challenge organism was P. multocida 46572. Target challenge concentration was 5×10^2 CFU/mouse. Isolated colonies from overnight growth (37° C. with 5% CO2) on trypticase soy agar (TSA II) blood plates were transferred to room temperature Brain Heart Infusion Broth (BHIB). The broth culture was incubated 3.5-4 hours to approximately mid-log phase of growth, as measured by forward light scatter at 600 nm (OD600, 0.200). The culture was centrifuged to collect the bacterial pellet. The pellet was re-suspended in BHIB and adjusted to provide an approximate concentration of 2.7 log^10 colony forming units (CFU) in 0.04 mL at the highest concentration. The challenge inoculum concentration was confirmed by serial dilutions of the inoculum for CFU enumeration. On Day −5, CD-1 female mice were received. Mice were given standard rodent diet and water ad libitum. On Day 0, bacterial inoculum (0.04 mL) was administered to each mouse (n=36) intranasally. Compounds of the invention were dosed at 20 mg/kg (0.1 mL) in a buffered (˜pH 5.4) propylene glycol, monothioglycerol and water solution by subcutaneous injection. Animals were observed from Days 1-10. The study was terminated on Day 10. In addition, some treatment groups were sampled at 6, 24, and 48 hours post bacterial challenge for RNA sequence analysis of lung tissue.
The murine efficacy model (P. multocida challenge) was optimized, and the treatment group size was powered to be able to observe statistically significant improvement of survival to expected ranges for immunomodulatory compounds. The experimental design was a randomized complete block design. Mice were individually identified and treatment groups comingled within a cage, with every treatment group equally represented across cages. Mortality was the primary variable. Mortality data was analyzed using a generalized mixed model with fixed effect of treatment and random effect of block. Survival time was also analyzed using the SAS PHREG (survival analysis) procedure to examine whether there were significant differences between treatment groups and the control group. Numerous compounds of the invention and M9 (positive control) were tested in this model at a dose of 20 mg/kg. Typical percent survival for no treatment control is in the range of 0-20% based on study to study variation in challenge inoculum and rate of infection. […] Mouse survival for M9 was about 90-100%, further supporting its antibacterial properties against the bacterial strain (Table 3). Survival values presented are harmonized against the comparative vehicle survival rate.

IL-1β = test: LPS-stimulated whole bovine blood assay, MSD cytokine detection; type: cell-based; details: overstimulation of IL-1β, LPS-stimulated bovine whole blood
TNF-α = test: as above; type: cell-based; details: Bos taurus, read-out: TNF-α (IC50 μM)
[1] = system: BRD pathogens, M. haemolytica and P. multocida; test: MIC screening panel of BRD pathogens (antibacterial / non-antibacterial); details: read-out: antibacterial / non-antibacterial (MIC for the BRD pathogens)
[2] = LPS-stimulated bovine whole blood
[3] = Bos taurus, LPS-stimulated bovine whole blood

Structure (SMILES)	IC50 (IL-6; [2])	Mouse Murine Percent Survival (P. multocida 46572)	IL-1β OS of LPS (IL-1β)	IC50 (TNF-α; [2])	IC50 (IL-6; [3])	IC50 (TNF-α)	IC50 (IL-6; Bos taurus)	MIC [1]
CC[C@H]1OC(=O)[C@H](C)[C@@H](O[C@H]2C[C@@](C)(OC)[C@@H](O)[C@H](C)O2)[C@H](C)[C@@H](O[C@@H]2O[C@H](C)C[C@H](N(C)C(=O)N(C)c3ccc(C(F)(F)F)cc3)[C@H]2O)[C@](C)(O)C[C@@H](C)CN[C@H](C)[C@@H](O)[C@]1(C)O [Example B-2, 1-((2S,3R,4S,6R)-2-(((2R,3S,4R,5R,8R,10R,11R,12S,13S,4R)-2-ethyl-3,4,10-trihydroxy-13-(((2R,4R,5S,6S)-5-hydroxy-4-methoxy-4,6-dimethyltetrahydro-2H-pyran-2-yl)oxy)-3,5,8,10,12,14-hexamethyl-15-oxo-1-oxa-6-azacyclopentadecan-11-yl)oxy)-3-hydroxy-6-methyltetrahydro-2H-pyran-4-yl)-1,3-dimethyl-3-(4-(trifluoromethyl)phenyl)urea]	52 µM	28%	40 µM	–	–	–	–	–
CC[C@H]1OC(=O)[C@H](C)[C@@H](O[C@H]2C[C@@](C)(OC)[C@@H](O)[C@H](C)O2)[C@H](C)[C@@H](O[C@@H]2O[C@H](C)C[C@H](N(C)C(=O)N(C)c3ccc(C(F)(F)F)cc3)[C@H]2O)[C@](C)(O)C[C@@H](C)CN(C)[C@H](C)[C@@H](O)[C@]1(C)O [Example B-6, 1-((2S,3R,4S,6R)-2-(((2R,3S,4R,5R,8R,10R,11R,12S,13S,14R)-2-ethyl-3,4,10-trihydroxy-13-(((2R,4R,5S,6S)-5-hydroxy-4-methoxy-4,6-dimethyltetrahydro-2H-pyran-2-yl)oxy)-3,5,6,8,10,12,14-heptamethyl-15-oxo-1-oxa-6-azacyclopentadecan-11-yl)oxy)-3-hydroxy-6-methyltetrahydro-2H-pyran-4-yl)-1,3-dimethyl-3-(4-(trifluoromethyl)phenyl)urea]	–	1%	40 µM	12 µM	41 µM	–	–	–
CCCNC[C@]1(O)[C@H](C)O[C@@H](O[C@H]2[C@H](C)[C@@H](O[C@@H]3O[C@H](C)C[C@H](N(C)C(=O)Nc4cccnc4)[C@H]3O)[C@](C)(O)C[C@@H](C)CN[C@H](C)[C@@H](O)[C@](C)(O)[C@@H](CC)OC(=O)[C@@H]2C)C[C@@]1(C)OC [Example H-72, 1-((2S,3R,4S,6R)-2-(((2R,3S,4R,5R,8R,10R,11R,12S,13S,14R)-2-ethyl-3,4,10-trihydroxy-13-(((2R,4R,5S,6S)-5-hydroxy-4-methoxy-4,6-dimethyl-5-((propylamino)methyl)tetrahydro-2H-pyran-2-yl)oxy)-3,5,8,10,12,14-hexamethyl-15-oxo-1-oxa-6-azacyclopentadecan-11-yl)oxy)-3-hydroxy-6-methyltetrahydro-2H-pyran-4-yl)-1-methyl-3-(pyridin-3-yl)urea]	–	4%	>500 µM	> 500 µM	> 500 µM	–	–	–
CCCNC[C@]1(O)[C@H](C)O[C@@H](O[C@H]2[C@H](C)[C@@H](O[C@@H]3O[C@H](C)C[C@H](N(C)C(=O)Nc4cnn(C)c4)[C@H]3O)[C@](C)(O)C[C@@H](C)CN[C@H](C)[C@@H](O)[C@](C)(O)[C@@H](CC)OC(=O)[C@@H]2C)C[C@@]1(C)OC [Example H-74, 1-((2S,3R,4S,6R)-2-(((2R,3S,4R,5R,8R,10R,11R,12S,13S,14R)-2-ethyl-3,4,10-trihydroxy-13-(((2R,4R,5S,6S)-5-hydroxy-4-methoxy-4,6-dimethyl-5-((propylamino)methyl)tetrahydro-2H-pyran-2-yl)oxy)-3,5,8,10,12,14-hexamethyl-15-oxo-1-oxa-6-azacyclopentadecan-11-yl)oxy)-3-hydroxy-6-methyltetrahydro-2H-pyran-4-yl)-1-methyl-3-(1-methyl-1H-pyrazol-4-yl)urea]	–	11%	>500 µM	–	–	~600 µM	> 500 µM	–
CCCNC(=O)N(C)[C@H]1C[C@@H](C)O[C@@H](O[C@@H]2[C@@H](C)[C@H](O[C@H]3C[C@@](C)(OC)[C@](O)(CNc4ccc(C(F)(F)F)cc4)[C@H](C)O3)[C@@H](C)C(=O)O[C@H](CC)[C@@](C)(O)[C@H](O)[C@@H](C)NC[C@H](C)C[C@@]2(C)O)[C@@H]1O [Example H-95, 1-((2S,3R,4S,6R)-2-(((2R,3S,4R,5R,8R,10R,11R,12S,13S,14R)-2-ethyl-3,4,10-trihydroxy-13-(((2R,4R,5S,6S)-5-hydroxy-4-methoxy-4,6-dimethyl-5-(((4-(trifluoromethyl)phenyl)amino)methyl)tetrahydro-2H-pyran-2-yl)oxy)-3,5,8,10,12,14-hexamethyl-15-oxo-1-oxa-6-azacyclopentadecan-11-yl)oxy)-3-hydroxy-6-methyltetrahydro-2H-pyran-4-yl)-1-methyl-3-propylurea]	–	39%	13 µM	10 µM	–	–	–	> 64 µg/mL
CC[C@H]1OC(=O)[C@H](C)[C@@H](O[C@H]2C[C@@](C)(OC)[C@](O)(CN3CCN(C)CC3)[C@H](C)O2)[C@H](C)[C@@H](O[C@@H]2O[C@H](C)C[C@H](N(C)C(=O)NC(C)(C)C)[C@H]2O)[C@](C)(O)C[C@@H](C)CN[C@H](C)[C@@H](O)[C@]1(C)O [Example J-3, 3-(tert-butyl)-1-((2S,3R,4S,6R)-2-(((2R,3S,4R,5R,8R,10R,11R,12S,13S,14R)-2-ethyl-3,4,10-trihydroxy-13-(((2R,4R,5S,6S)-5-hydroxy-4-methoxy-4,6-dimethyl-5-((4-methylpiperazin-1-yl)methyl)tetrahydro-2H-pyran-2-yl)oxy)-3,5,8,10,12,14-hexamethyl-15-oxo-1-oxa-6-azacyclopentadecan-11-yl)oxy)-3-hydroxy-6-methyltetrahydro-2H-pyran-4-yl)-1-methylurea]	–	25%	200 µM	200 µM	225 µM	–	–	–
CC[C@H]1OC(=O)[C@H](C)[C@@H](O[C@H]2C[C@@](C)(OC)[C@](O)(CN3CCN(C)CC3)[C@H](C)O2)[C@H](C)[C@@H](O[C@@H]2O[C@H](C)C[C@H](N(C)C(=O)Nc3ccccc3)[C@H]2O)[C@](C)(O)C[C@@H](C)CN[C@H](C)[C@@H](O)[C@]1(C)O [Example J-7, 1-((2S,3R,4S,6R)-2-(((2R,3S,4R,5R,8R,10R,11R,12S,13S,14R)-2-ethyl-3,4,10-trihydroxy-13-(((2R,4R,5S,6S)-5-hydroxy-4-methoxy-4,6-dimethyl-5-((4-methylpiperazin-1-yl)methyl)tetrahydro-2H-pyran-2-yl)oxy)-3,5,8,10,12,14-hexamethyl-15-oxo-1-oxa-6-azacyclopentadecan-11-yl)oxy)-3-hydroxy-6-methyltetrahydro-2H-pyran-4-yl)-1-methyl-3-phenylurea]	–	39%	200 µM	200 µM	> 500 µM	–	–	–
